Assays:
[1] = system: plasma luteinizing hormone (LH) levels; conditions: cited from earlier work; for Action: duration of action class as listed in Table 1, castrated male rat assay, ref Tables S1 and S2
Source text: Table 1 Biochemical and Biophysical Properties of Aggregates By GnRH-Analogs | column: Action || Supplement pbio.0060017.st001.doc, table 1: Table S1: Short acting GnRH analogs with their duration of action | column: Duration of action^b || Supplement pbio.0060017.st002.doc, table 1: Table S2: Long acting GnRH analogs with their duration of action | column: Duration of action^b || (+ 2 further places)

Congo red (CR) binding = assay type: physicochemical; design: key to Congo Red: b, binding; n, not binding; conditions: analogs incubated for 30 d; for Congo Red: 1 mg/ml in 5% D-mannitol, 0.01% sodium azide, room temperature, UV 300–700 nm and by eye, three independent experiments
Experimental: To confirm amyloid formation by GnRH analogs, CR binding was measured. CR, like Thio T, is a dye routinely used to detect β-sheet–rich assemblies. CR binding can be measured by the “red shift” change of its absorption maximum from 490 to 540 nm, by an increase of the dye's molar absorptivity, and in favorable cases by eye. All three types of measurements were performed with GnRH analogs incubated for 30 d. […] However, five short-acting GnRH analogs, i.e., S3, S4, S6, S10, and S11, bind CR, showing that some short-acting GnRH-analogs are able to form amyloids after prolonged incubation (see also below). In contrast to short-acting analogs, all long-acting analogs bind CR.
(§1) GnRH analogs were dissolved in a glass tube in 1 ml of 5% D-mannitol and 0.01% sodium azide at a concentration of 1 mg/ml. The GnRH analogs were then incubated at room temperature without stirring. The fibril formation was monitored by EM, CR, and time-resolved by Thio T binding studies. Three independent experiments were performed for each sample.
A 5-μl aliquot of peptide sample was mixed with 80 μl of PBS buffer containing 10% ethanol. Then 15 μl of a 100 μM CR solution (filtered through 0.2-μm filter) in PBS containing 10% ethanol was added. After mixing, UV was measured from 300–700 nm. For the measurement of the CR-only spectrum, 15 μl of CR solution with 85 μl of PBS containing 10% ethanol was prepared. As a control, a 5-μl aliquot of GnRH analog mixed with 95 μl of PBS containing 10% ethanol was measured. Three independent experiments were performed for each sample. In addition to the UV measurements, pictures of the cuvette containing the peptide sample and CR were taken to visually show the CR binding to the amyloids.

[2] = Peptide release from amyloid (dialysis experiment); conditions: for KD: dissociation constant of the aggregates = final monomer concentration, 200 μl of 30-d-old analog dialyzed against 4 ml 5% D-mannitol, fluorescence ex 280 nm
Experimental: Although amyloid fibrils are very stable, they must follow thermodynamic equilibrium conditions between fibril and monomer. […] A total of 200 μl of 30-d-old GnRH analog (in) was dialyzed 4 ml of 5% D-mannitol (out). A 3.5-kDa cutoff, which is twice the size of the peptides studied, was chosen to ensure that the released particles are most likely monomeric. The peptide release and the remaining aggregates were monitored by fluorescence over 35 d at room temperature.
A 200-μl aliquot of aged GnRH in solution conditions given above was transferred into a 0.6-ml Eppendorf tube with a hole in the cap. To study the effect of heparin on peptide release, a mixture of hormone analog and heparin (1:1 v/v) was incubated overnight in parallel with a half-diluted peptide fibril sample in 5% D-mannitol and 0.01% sodium azide. The hole in the cap of the Eppendorf tube was sealed with a 3.5-kDa molecular weight cutoff (MWCO) membrane. Next, the Eppendorf tube was inserted upside down into a 15-ml Falcon tube containing 4 ml of 5% D-mannitol in water and 0.01% sodium azide. Care was taken to make sure that the membrane was exposed to solutions both in and outside and that any bubbles at the membrane interface were removed. The tubes were then incubated at room temperature. To measure the remaining peptide concentration inside the 0.6-ml Eppendorf tube, a 5-μl aliquot was diluted into 500 μl water with 5% D-mannitol, 0.01% sodium azide, and the fluorescence was measured with excitation at 280 nm and emission in the range of 290–500 nm. The excitation slit width was 2 nm, and emission slit width was 11 nm. To determine the peptide concentration outside the membrane in the 15-ml tube, an aliquot of 250 μl of solution was taken from the releasing medium, diluted into 500 μl final volume by 5% D-mannitol, 0.01% sodium azide, and fluorescence was measured. Following spectra recording, the dialysis system was reassembled as described above. […] The normalized intensity maxima from inside and outside the membrane were plotted as a function of time and fit by an exponential function to extract the half-life of the fibrils and the K off, respectively. […] The extracted half-life, t 1/2, is the time taken, during which the fluorescence signal inside the 0.6-ml Eppendorf tube drops by 50%.

[3] = Thio T binding (amyloid fibril formation); assay type: physicochemical; design: key to Thio T Binding: b, binding; n, not binding; conditions: 1 mg/ml in 5% D-mannitol, 0.01% sodium azide, room temperature without stirring, monitored daily over 21 d; fluorescence ex 450 nm / em 482 nm; three independent experiments
Experimental: The kinetics of fibril formation in vitro is generally a slow process over several days or weeks, and can be monitored by the increase of fluorescence intensity of the cross-β-sheet–sensitive dye, Thio T [15]. Thio T fluorescence is thereby insignificant during the initial incubation period of amyloid aggregation due to the nonexistence of Thio T–sensitive β-sheet aggregates. After the initial phase, a time-dependent increase of fluorescence intensity is observed until a maximum intensity is reached, at which time maximal fibril formation has occurred. […] For the Thio T binding studies, all GnRH analogs were incubated at room temperature at a concentration of 1 mg/ml in 5% D-mannitol, conditions identical to the formulation used in the animal experiments. In addition, 0.01% sodium azide was added. The Thio T fluorescence was monitored daily for all analogs over a period of 21 d (Figure 1).
as §1
A 10-μl aliquot of peptide sample was diluted into 500 μl of water with 5% D-mannitol containing 0.01% (w/v) sodium azide. The solution was mixed with 10 μl of 1 mM Thio T prepared in the same solution. Fluorescence was measured immediately after addition of Thio T. The experiment was measured on a spectrofluorimeter (Photon Technology International) with excitation at 450 nm and emission at 482 nm. The fluorescence intensity at 482 nm was plotted against incubation time (day). A rectangular 10-mm quartz microcuvette was used. Three independent experiments were performed for each sample.

[4] = Electron microscopy of negative-stained samples; assay type: physicochemical; design: key to EM^8 / EM^30: fib, fibrils; nfib, no fibrils; conditions: for EM^8: electron microscopy at day 8 of incubation; for EM^8 / EM^30: 1 mg/ml in 5% D-mannitol, room temperature, at least two independent experiments; for EM^30: electron microscopy at day 30 of incubation; for EM, formation of amyloid-like fibrils at day 8 (in words): 8 d of incubation; for EM, formation of amyloid-like fibrils at day 30 (in words): 30 d of incubation
Experimental: To formally determine the formation of amyloid fibrils by GnRH analogs and to characterize other possible assemblies present in the sample, EM was done on all of the GnRH analogs. Since the EM analysis is for a qualitative interpretation only, amyloid fibrils and other small aggregates might be observed under the electron microscope even if only a minority of the sample forms fibrils. Samples were studied after 8 and 30 d of incubation. […] The fibrils show a wide variety of morphologies, comprising helical ultrastructures with varying degrees of lateral association. Furthermore, the fibrils are composed of one or more filaments, resulting in overall diameters ranging from approximately 6 to 12 nm. No oligomers are observed for the long-acting compounds at day 8 or at day 30 (Figures 2 and S2).
as §1
A 5-μl aliquot of peptide sample was diluted into 50 μl of water to a peptide concentration of approximately 50 μM, spotted on a glow-discharged, carbon-coated Formvar grid (Electron Microscopy Sciences), incubated for 5 min, washed with distilled water, and then stained with 1% (w/v) aqueous uranyl formate solution. Uranyl formate solutions were filtered through 0.2-μm sterile syringe filters (Corning) before use. EM analysis was performed using a JEOL JEM-100CXII electron microscope at 80 kV with nominal magnifications between 36,000 and 72,000. Images were recorded digitally by using the SIS Megaview III imaging system. At least two independent experiments were carried out for each sample.

[5] = 3.5-kDa MWCO, room temperature, 35 d
[6] = half-life of fibrils: time in which fluorescence inside drops by 50%, dialysis of 30-d-old analog, 3.5-kDa MWCO, 5% D-mannitol, room temperature, 35 d, exponential fit, 2 d = intrinsic diffusion of monomer
[7] = dialysis, 3.5-kDa cutoff, room temperature, 35 d

Congo Red (Congo red (CR) binding) | KD [2, 5] | t1/2 [2, 6] | Thio T Binding [3] | EM^8 [4] | EM^30 [4] | time to reach equilibrium of fluorescence inside and outside of the membrane ([2]; dialysis, 3.5-kDa cutoff, room temperature) | Compound | Action [1] | CR binding (in words) (Congo red (CR) binding) | stability of fibrils from release profile (in words) ([2]; dialysis of 30-d-old samples, 35 d) | K off [2, 7] | t1/2 [2, 7] | Koff ([2]; monomer release from aggregates, dialysis of 30-d-old analog, 3.5-kDa MWCO, 5% D-mannitol, room temperature, 35 d, exponential fit) | EM, formation of amyloid-like fibrils at day 8 (in words) [4] | EM, formation of amyloid-like fibrils at day 30 (in words) [4] | duration of action ([1]; ref [29],[30])
n |  | 48 h | n | nfib | nfib |  | Ac-DNal-DCpa-DPal-Ser-Arg-DGlu(AA)-Leu-Arg-Pro-DAla-NH2 [S7, reference compound] |  |  |  |  |  |  |  | do not form any detectable amyloid-like fibrils | 
n |  | 48 h | n | nfib | nfib | ≤ 3 days | CC(C)C[C@H](NC(=O)CNC(=O)[C@H](Cc1ccc(O)cc1)NC(=O)[C@H](CO)NC(=O)[C@H](Cc1c[nH]c2ccccc12)NC(=O)[C@H](Cc1c[nH]cn1)NC(=O)[C@@H]1CCC(=O)N1)C(=O)N[C@@H](CCCNC(=N)N)C(=O)N1CCC[C@H]1C(=O)NCC(N)=O [S12, reference compound] |  |  |  | approximately 4 × 10^−6 S^−1 | approximately 2 d |  |  | do not form any detectable amyloid-like fibrils | a few hours
n |  | 48 h | n | nfib | nfib |  | Ac-D3-Pro-DFpa-DTrp-Ser-Tyr-DTrp-Leu-Arg-Pro-Gly-NH2 [S5, reference compound] |  |  |  |  |  |  |  | do not form any detectable amyloid-like fibrils | 
n |  | 48 h | n | nfib | nfib |  | Ac-Agl(Me,2-Napht)-DCpa-DPal-Ser-Aph(Ac)-DAph(Ac)-Leu-ILys-Pro-DAla-NH2 [S8] | very short |  |  |  |  |  |  | do not form any detectable amyloid-like fibrils | 
n |  | 48 h | n | nfib | nfib |  | Ac-DNal-DCpa-DPal-Ser-D,LAgl(Me,acetylamino)benzoyl-DAph(Ac)-Leu-ILys-Pro-DAla-NH2 [S9] | very short |  |  |  |  |  |  | do not form any detectable amyloid-like fibrils | 

Further lines, the compound ahead of its results:

Compound | Congo Red (Congo red (CR) binding) | KD [2, 5] | t1/2 [2, 6] | Thio T Binding [3] | EM^8 [4] | EM^30 [4] | time to reach equilibrium of fluorescence inside and outside of the membrane ([2]; dialysis, 3.5-kDa cutoff, room temperature) | Action [1] | CR binding (in words) (Congo red (CR) binding) | stability of fibrils from release profile (in words) ([2]; dialysis of 30-d-old samples, 35 d) | K off [2, 7] | t1/2 [2, 7] | Koff ([2]; monomer release from aggregates, dialysis of 30-d-old analog, 3.5-kDa MWCO, 5% D-mannitol, room temperature, 35 d, exponential fit) | EM, formation of amyloid-like fibrils at day 8 (in words) [4] | EM, formation of amyloid-like fibrils at day 30 (in words) [4] | duration of action ([1]; ref [29],[30])
Ac-DNal-DCpa-DPal-Ser-Aph(Ac)-DAph(Ac)-Leu-Agl(Me,IβAla)-Pro-DAla-NH2 [L22] | b | 7000 nM | 672 h | b | fib | fib |  | medium |  |  |  |  |  |  |  | 
des-Ac-[DAph(CONHOCH3)6]Peg-degarelix [S10] | b | 1000 nM | ≫35 day | b | fib | fib |  |  | bind CR | form very stable amyloids with very little peptide release | < 2 × 10^−7 S^−1 | over 35 d | ≪2 × 10^−7 s^−1 | form amyloid-like fibrils | form amyloid-like fibrils | 
Ac-Agl(2-Napht)-DCpa-DPal-Ser-Aph(Ac)-DAph(Ac)-Leu-ILys-Pro-DAla-NH2 [L21] | b | 2000 nM | 840 h | b | fib | fib |  | intermediate |  |  |  |  |  |  |  | 
Ac-DNal-DCpa-DPal-Ser-Aph(Atz)-DAph(Atz)-Leu-ILys-Pro-DAla-NH2 [L19, reference compound] | b |  |  | b | fib | fib |  |  |  |  |  |  |  |  |  | 
des-Ac-[Aph(CO-NH-OCH3)^5]-CH3-(CH2)2-CO-degarelix [L16] | b |  |  | b | fib | fib |  |  |  |  |  |  |  | Short worm-like protofibrils |  | 

From article PMC2225439, “Amyloid as a Depot for the Formulation of Long-Acting Drugs” (PLoS Biology, 2008)
